The results in this text go back to US20130303509A1, “NAMPT INHIBITORS” (AbbVie Inc., priority 2012, published 2013).

SMILES strings stand for the structures.

For orientation: IC50 means the midpoint of a concentration-inhibition curve. The low end stands for greater potency in that assay, the high end for weaker potency in that assay.

For this assay, the system named is PC3 cells. The assay can be described thus: NAMPT Cell Proliferation Assay. It is filed as cell-based. Conditions: Homo sapiens, PC-3, 120 h, 5 days incubation, cell viability by Cell Titer Glo. A digest of the protocol:
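Seeded at 500 cells/well in RPMI with 10% heat-inactivated FBS and left to attach overnight at 37° C, 5% CO2. Compounds were added as 10-fold dilutions […] for 5 days, then viability was read by CellTiter-Glo. IC50s came from sigmoidal fits of percent inhibition.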
A general note: ATP-based viability assays read luminescence as a measure of living cells.
Compound `O=C(Nc1ccc(C2CCN(C(=O)c3ccccc3)CC2)cc1)[C@H]1CCN(c2cccnn2)C1` [Example 311, (3S)—N-[4-(1-benzoylpiperidin-4-yl)phenyl]-1-(pyridazin-3-yl)pyrrolidine-3-carboxamide] displayed an IC50 of 2.9 nM.

For `O=C(Nc1ccc(C2CCN(C(=O)CC3CCOCC3)CC2)cc1)[C@H]1CCN(c2cccnn2)C1` [Example 312, (3S)-1-(pyridazin-3-yl)-N-{4-[1-(tetrahydro-2H-pyran-4-ylacetyl)piperidin-4-yl]phenyl}pyrrolidine-3-carboxamide], the IC50 is 21.7 nM.

`CC(C)(C)C(=O)N1CCC(c2ccc(NC(=O)[C@H]3CCN(c4cccnn4)C3)cc2)CC1` [Example 313, (3S)—N-{4-[1-(2,2-dimethylpropanoyl)piperidin-4-yl]phenyl}-1-(pyridazin-3-yl)pyrrolidine-3-carboxamide]: it took 6.03 nM to reach half-maximal inhibition (IC50).

Compound `CC(C)(C)OC(=O)N1CCC(c2ccc(C(=O)NC3CN(c4cccnn4)C3)cc2)CC1` [Example 314, tert-butyl 4-(4-{[1-(pyridazin-3-yl)azetidin-3-yl]carbamoyl}phenyl)piperidine-1-carboxylate] had a half-maximal inhibitory concentration (IC50) of 621 nM. This IC50 lies about 100-fold higher than the previous one.

The compound `CC(C)Cn1cc(-c2ccc(C(=O)NC3CN(c4cccnn4)C3)s2)cn1` [Example 315, 5-[1-(2-methylpropyl)-1H-pyrazol-4-yl]-N-[1-(pyridazin-3-yl)azetidin-3-yl]thiophene-2-carboxamide] showed an IC50 of 86.8 nM. This IC50 lies about 7.2-fold lower than the previous one.

As to `CC(=O)N1CCC(c2ccc(NC(=O)C3CN(c4cccnn4)C3)cc2)CC1` [Example 316, N-[4-(1-acetylpiperidin-4-yl)phenyl]-1-(pyridazin-3-yl)azetidine-3-carboxamide], inhibition was half-maximal at 3.12 nM (IC50). This IC50 is about 28-fold lower than that of the compound before.

`CCCC(=O)N1CCC(c2ccc(NC(=O)C3CN(c4cccnn4)C3)cc2)CC1` [Example 317, N-[4-(1-butanoylpiperidin-4-yl)phenyl]-1-(pyridazin-3-yl)azetidine-3-carboxamide]: the IC50 came out at 1.83 nM.

Take `CCCCC(=O)N1CCC(c2ccc(NC(=O)C3CN(c4cccnn4)C3)cc2)CC1` [Example 318, N-[4-(1-pentanoylpiperidin-4-yl)phenyl]-1-(pyridazin-3-yl)azetidine-3-carboxamide]: the IC50 was 2.72 nM.

`CCC(C)C(=O)N1CCC(c2ccc(NC(=O)C3CN(c4cccnn4)C3)cc2)CC1` (stereo not drawn) [Example 319, N-{4-[1-(2-methylbutanoyl)piperidin-4-yl]phenyl}-1-(pyridazin-3-yl)azetidine-3-carboxamide] gave a half-inhibitory concentration (IC50) of 1.24 nM. Compared with the last compound, the IC50 is about 2.2-fold lower.

As to `CC(C)CC(=O)N1CCC(c2ccc(NC(=O)C3CN(c4cccnn4)C3)cc2)CC1` [Example 320, N-{4-[1-(3-methylbutanoyl)piperidin-4-yl]phenyl}-1-(pyridazin-3-yl)azetidine-3-carboxamide], the IC50 worked out at 2.37 nM.

The compound `CCCCCC(=O)N1CCC(c2ccc(NC(=O)C3CN(c4cccnn4)C3)cc2)CC1` [Example 321, N-[4-(1-hexanoylpiperidin-4-yl)phenyl]-1-(pyridazin-3-yl)azetidine-3-carboxamide] returned an IC50 of 3.21 nM.

`CCCC(C)C(=O)N1CCC(c2ccc(NC(=O)C3CN(c4cccnn4)C3)cc2)CC1` (stereo not drawn) [Example 322, N-{4-[1-(2-methylpentanoyl)piperidin-4-yl]phenyl}-1-(pyridazin-3-yl)azetidine-3-carboxamide] returned an IC50 of 2.14 nM.

As to `CCC(C)CC(=O)N1CCC(c2ccc(NC(=O)C3CN(c4cccnn4)C3)cc2)CC1` (stereo not drawn) [Example 323, N-{4-[1-(3-methylpentanoyl)piperidin-4-yl]phenyl}-1-(pyridazin-3-yl)azetidine-3-carboxamide], the IC50 amounted to 2.81 nM.

Consider `CC(C)CCC(=O)N1CCC(c2ccc(NC(=O)C3CN(c4cccnn4)C3)cc2)CC1` [Example 324, N-{4-[1-(4-methylpentanoyl)piperidin-4-yl]phenyl}-1-(pyridazin-3-yl)azetidine-3-carboxamide], for which half-maximal inhibition (IC50) was put at 7.08 nM.

With `CCC(C)(C)C(=O)N1CCC(c2ccc(NC(=O)C3CN(c4cccnn4)C3)cc2)CC1` [Example 325, N-{4-[1-(2,2-dimethylbutanoyl)piperidin-4-yl]phenyl}-1-(pyridazin-3-yl)azetidine-3-carboxamide], the midpoint of inhibition, the IC50, lay at 1.28 nM.

On to `CC(C)C(C)C(=O)N1CCC(c2ccc(NC(=O)C3CN(c4cccnn4)C3)cc2)CC1` (stereo not drawn) [Example 326, N-{4-[1-(2,3-dimethylbutanoyl)piperidin-4-yl]phenyl}-1-(pyridazin-3-yl)azetidine-3-carboxamide], for which it took 5.77 nM to reach half-maximal inhibition (IC50). Compared with the last compound, the IC50 is about 4.5-fold higher.

In turn, `CC(C)(C)CC(=O)N1CCC(c2ccc(NC(=O)C3CN(c4cccnn4)C3)cc2)CC1` [Example 327, N-{4-[1-(3,3-dimethylbutanoyl)piperidin-4-yl]phenyl}-1-(pyridazin-3-yl)azetidine-3-carboxamide] registered an IC50 of 1.23 nM.

Compound `CCC(CC)C(=O)N1CCC(c2ccc(NC(=O)C3CN(c4cccnn4)C3)cc2)CC1` [Example 328, N-{4-[1-(2-ethylbutanoyl)piperidin-4-yl]phenyl}-1-(pyridazin-3-yl)azetidine-3-carboxamide] returned an IC50 of 1.59 nM.

With `CCCCCCC(=O)N1CCC(c2ccc(NC(=O)C3CN(c4cccnn4)C3)cc2)CC1` [Example 329, N-[4-(1-heptanoylpiperidin-4-yl)phenyl]-1-(pyridazin-3-yl)azetidine-3-carboxamide], the IC50 amounted to 2.83 nM.

Turning to `C=CCC(=O)N1CCC(c2ccc(NC(=O)C3CN(c4cccnn4)C3)cc2)CC1` [Example 330, N-{4-[1-(but-3-enoyl)piperidin-4-yl]phenyl}-1-(pyridazin-3-yl)azetidine-3-carboxamide], the IC50 was 1.38 nM.

On to `C=CCCC(=O)N1CCC(c2ccc(NC(=O)C3CN(c4cccnn4)C3)cc2)CC1` [Example 331, N-{4-[1-(pent-4-enoyl)piperidin-4-yl]phenyl}-1-(pyridazin-3-yl)azetidine-3-carboxamide], for which the IC50 is 2.09 nM.

In turn, `O=C(Nc1ccc(C2CCN(C(=O)CC(F)(F)F)CC2)cc1)C1CN(c2cccnn2)C1` [Example 332, 1-(pyridazin-3-yl)-N-{4-[1-(3,3,3-trifluoropropanoyl)piperidin-4-yl]phenyl}azetidine-3-carboxamide] registered an IC50 of 0.99 nM.

The compound `COCC(=O)N1CCC(c2ccc(NC(=O)C3CN(c4cccnn4)C3)cc2)CC1` [Example 333, N-{4-[1-(methoxyacetyl)piperidin-4-yl]phenyl}-1-(pyridazin-3-yl)azetidine-3-carboxamide] yielded an IC50 of 5.68 nM.

Regarding `CSCC(=O)N1CCC(c2ccc(NC(=O)C3CN(c4cccnn4)C3)cc2)CC1` [Example 334, N-(4-{1-[(methylsulfanyl)acetyl]piperidin-4-yl}phenyl)-1-(pyridazin-3-yl)azetidine-3-carboxamide], the IC50 was found to be 0.97 nM.

Take `COCCOCC(=O)N1CCC(c2ccc(NC(=O)C3CN(c4cccnn4)C3)cc2)CC1` [Example 335, N-(4-{1-[(2-methoxyethoxy)acetyl]piperidin-4-yl}phenyl)-1-(pyridazin-3-yl)azetidine-3-carboxamide]: half-maximal inhibition (IC50) was put at 6.07 nM.

Regarding `O=C(Nc1ccc(C2CCN(C(=O)CC[N+](=O)[O-])CC2)cc1)C1CN(c2cccnn2)C1` [Example 336, N-{4-[1-(3-nitropropanoyl)piperidin-4-yl]phenyl}-1-(pyridazin-3-yl)azetidine-3-carboxamide], half-maximal inhibition (IC50) required 8.26 nM. The IC50 values of the last two compounds are within 1.5-fold of each other.

Compound `CSCCC(=O)N1CCC(c2ccc(NC(=O)C3CN(c4cccnn4)C3)cc2)CC1` [Example 337, N-(4-{1-[3-(methylsulfanyl)propanoyl]piperidin-4-yl}phenyl)-1-(pyridazin-3-yl)azetidine-3-carboxamide] had a half-maximal inhibitory concentration (IC50) of 6.94 nM.

On to `C#CCCC(=O)N1CCC(c2ccc(NC(=O)C3CN(c4cccnn4)C3)cc2)CC1` [Example 338, N-{4-[1-(pent-4-ynoyl)piperidin-4-yl]phenyl}-1-(pyridazin-3-yl)azetidine-3-carboxamide], for which the IC50 was found to be 1.11 nM.

`O=C(Nc1ccc(C2CCN(C(=O)C3CCCCC3)CC2)cc1)C1CN(c2cccnn2)C1` [Example 339, N-{4-[1-(cyclohexylcarbonyl)piperidin-4-yl]phenyl}-1-(pyridazin-3-yl)azetidine-3-carboxamide]: the IC50 worked out at 1.83 nM.

On to `O=C(Nc1ccc(C2CCN(C(=O)CC3CCCCC3)CC2)cc1)C1CN(c2cccnn2)C1` [Example 340, N-{4-[1-(cyclohexylacetyl)piperidin-4-yl]phenyl}-1-(pyridazin-3-yl)azetidine-3-carboxamide], for which 2.42 nM corresponded to half-maximal inhibition (IC50).

As to `Cc1cccc(C(=O)N2CCC(c3ccc(NC(=O)C4CN(c5cccnn5)C4)cc3)CC2)c1` [Example 341, N-{4-[1-(3-methylbenzoyl)piperidin-4-yl]phenyl}-1-(pyridazin-3-yl)azetidine-3-carboxamide], the half-inhibitory concentration (IC50) turned out to be 1.98 nM.

In the case of `O=C(Nc1ccc(C2CCN(C(=O)c3ccccc3O)CC2)cc1)C1CN(c2cccnn2)C1` [Example 342, N-{4-[1-(2-hydroxybenzoyl)piperidin-4-yl]phenyl}-1-(pyridazin-3-yl)azetidine-3-carboxamide], 2.3 nM corresponded to half-maximal inhibition (IC50).

`O=C(Nc1ccc(C2CCN(C(=O)c3cccc(O)c3)CC2)cc1)C1CN(c2cccnn2)C1` [Example 343, N-{4-[1-(3-hydroxybenzoyl)piperidin-4-yl]phenyl}-1-(pyridazin-3-yl)azetidine-3-carboxamide] registered an IC50 of 6.53 nM.

The compound `O=C(Nc1ccc(C2CCN(C(=O)c3ccc(O)cc3)CC2)cc1)C1CN(c2cccnn2)C1` [Example 344, N-{4-[1-(4-hydroxybenzoyl)piperidin-4-yl]phenyl}-1-(pyridazin-3-yl)azetidine-3-carboxamide] had an IC50 of 8.9 nM. The IC50 values of the last two compounds are within 1.5-fold of each other.

Compound `COc1ccccc1C(=O)N1CCC(c2ccc(NC(=O)C3CN(c4cccnn4)C3)cc2)CC1` [Example 345, N-{4-[1-(2-methoxybenzoyl)piperidin-4-yl]phenyl}-1-(pyridazin-3-yl)azetidine-3-carboxamide] displayed an IC50 of 1.99 nM.

Compound `COc1cccc(C(=O)N2CCC(c3ccc(NC(=O)C4CN(c5cccnn5)C4)cc3)CC2)c1` [Example 346, N-{4-[1-(3-methoxybenzoyl)piperidin-4-yl]phenyl}-1-(pyridazin-3-yl)azetidine-3-carboxamide] showed an IC50 of 3.8 nM.
